Experimental data published in patent US5614555A, “Amidinophenol derivatives” (Ono Pharmaceutical Co., Ltd., priority 1992, dated 1997).
Structures can show the parent of a compound that is named as a salt.

What was measured:
[1] = target: T1, PLA2 (derived from hog pancreas) (Sus scrofa, UniProt P00592); test: Inhibitory activity on PLA2; type: biochemical; details: pH7.5, 10PY-PC substrate, fluorescence Ex=345 nm, Em=396 nm
T1 construct: from tissue; host or cells: hog pancreas
Protocol: A reaction solution including 50 mM tris-HCl buffer (pH7.5, 874 μl; containing 100 mM sodium chloride, 1 mM EDTA), 1M calcium chloride (6 μl), 1% bovine serum albumin (10 μl) and 2.5 mM 10PY-PC (10 μl), was prepared. To the solution were added a test compound in various concentration or water (50 μl), and a solution of 10 mU/ml PLA2 (derived from hog pancreas)(50 μl). The appearance of fluorescence was measured (Ex=345 nm, Em=396 nm). Percentage (%) of the strength of fluorescence in the presence of a test compound was calculated when the strength of that in the absence thereof was regarded as 100%, and therefrom IC50 value was calculated.
10PY-PC represents 3'-palmitoyl-2-(1 -pyrenedecanoyl)-L-α-phosphatidycholine, […]

[2] = target: T2, trypsin (derived from bovine pancreas) (Bos taurus, UniProt P00760); test: Inhibitory activity on trypsin; type: biochemical; details: pH8.0, preincubated one minute at 30° C., BAPNA substrate, 30 min, absorbance at 405 nm
T2 construct: from tissue; host or cells: bovine pancreas
T2 sequence (P00760 24-246): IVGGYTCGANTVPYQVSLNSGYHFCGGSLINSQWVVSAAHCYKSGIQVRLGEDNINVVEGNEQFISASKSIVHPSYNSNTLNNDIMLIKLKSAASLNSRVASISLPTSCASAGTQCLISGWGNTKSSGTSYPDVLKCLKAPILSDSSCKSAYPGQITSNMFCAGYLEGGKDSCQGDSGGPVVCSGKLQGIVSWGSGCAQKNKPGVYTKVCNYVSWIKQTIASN
Protocol: To a mixture of a 0.2M HEPES.sodium hydroxide buffer solution (pH8.0, 100 μl ) and distilled water (640 μl), were added a test compound in various concentration or water (10 μl), and a solution of 80 mU/ml trypsin (derived from bovine pancreas) (50 μl) and then the mixture was preincubated for one minute at 30° C. To the solution thus obtained was added 2.5 mM BAPNA (200 μl) and the mixture was incubated for 30 min. The absorbance at 405 nm was measured. Percentage (%) of the absorbance in the presence of a test compound was calculated when the absorbance in the absence thereof was regarded as 100%, and therefrom IC50 value was calculated.
HEPES represents 4-(2-hydroxyethyl)-1-piperazineethanesulfonic acid, and
BAPNA represents a-N-benzoyl-DL-arginine-p-nitroanilide hydrochloride.

PLA2 = details: Japan. J. Pharmacol., 52, 23-34, 1990; cited from earlier work

T1 sequence (P00592 23-146): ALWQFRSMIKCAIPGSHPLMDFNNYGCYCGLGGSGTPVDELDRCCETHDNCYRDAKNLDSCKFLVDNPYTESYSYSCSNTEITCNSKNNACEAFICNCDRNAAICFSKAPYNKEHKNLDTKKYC

Row | SMILES | IC50 [1] [nM] | IC50 [2] [nM] | inhibitory activity on PLA2 (in words) (PLA2)
1 | CCOC(=O)CC[C@H](NC(=O)/C(C)=C/c1ccc(C(=O)Oc2ccc(C(=N)N)cc2)cc1)C(=O)OCC [1(d), p-(p-amidino-phenoxycarbonyl)-α-methylcinnamicacid N-[1-(S),3-bis-(ethoxycarbonyl)]-propylamidehydrochloride] | 63000 | 130 | –
2 | CCOC(=O)CN(C(=O)/C(C)=C/c1ccc(C(=O)Oc2ccc(C(=N)N)cc2)cc1)c1ccc(F)cc1 [1(g), p-(p-amidino-phenoxycarbonyl)-α-methylcinnamicacid N-(p-fluoro-phenyl)-N-ethoxy-carbonylmethyl-amidemethanesulfonate] | 5300 | 140 | –
3 | C=CCN(CC(=O)OCC)C(=O)/C(C)=C/c1ccc(C(=O)Oc2ccc(C(=N)N)cc2)cc1 [1(i), p-(p-amidino-phenoxycarbonyl)-α-methylcinnamicacid N-allyl-N-ethoxycarbonylmethylamideacetate] | 28000 | 130 | –
4 | CCOC(=O)CN(C(=O)/C=C(\C)c1ccc(C(=O)Oc2ccc(C(=N)N)cc2)cc1)c1ccccc1 [1(k), p-(p-amidino-phenoxycarbonyl)-β-methylcinnamicacid N-phenyl-N-ethoxycarbonyl-methylamidehydrochloride] | 3100 | 220 | –
5 | CCOC(=O)CN(C(=O)c1ccc(C(=O)Oc2ccc(C(=N)N)cc2C(=O)OC)cc1)c1ccccc1 [1(p), p-(p-amidino-o-methoxycarbonyl-phenoxycarbonyl)-benzoic acid N-phenyl-N-ethoxy-carbonylmethyl-amide acetate] | – | 150 | –
6 | N=C(N)c1ccc(OC(=O)c2ccc(C(=O)N3CCN(Cc4ccccc4)CC3)cc2)cc1 [1(t), p-(p-amidino-phenoxycarbonyl)-benzoic acid N'-phenylmethyl-piperazinylamidedihydrochloride] | 24000 | 220 | –
7 | N=C(N)c1ccc(OC(=O)c2ccc(C(=O)N3CCC[C@@H]3C(=O)OCc3ccccc3)cc2)cc1 [2(f), p-(p-amidinophenoxycarbonyl)benzoic acid-N-(2-(R)-benzyloxycarbonyl)pyrrolidinylamideacetic acid] | 32000 | 140 | –
8 | CCOC(=O)CN(Cc1ccccc1)C(=O)/C(C)=C/c1ccc(C(=O)Oc2ccc(C(=N)N)cc2)cc1 [Example 1, p-(p-Amidinophenoxycarbonyl)-α-methylcinnamic acid N-ethoxycarbonylmethyl-N-phenylmethylamide hydrochloride] | 4800 | 140 | –
9 | CCOC(=O)CN(C(=O)/C=C/c1ccc(C(=O)Oc2ccc(C(=N)N)cc2)cc1)c1ccccc1 [Example 2(a), p-(p-amidinophenoxycarbonyl)cinnamic acid-N-phenyl-N-ethoxycarbonylmethyl amidehydrochloride] | 15000 | 140 | –
10 | C=CCN(CC(=O)O)C(=O)/C(C)=C/c1ccc(C(=O)Oc2ccc(C(=N)N)cc2)cc1 [Example 4, p-(p-Amidinophenoxycarbonyl)-α-methylcinnamic acid N-carboxymethyl-N-allylamide methanesulfonate] | – | 100 | –
11 | CN(C)C(=O)COC(=O)Cc1ccc(OC(=O)c2ccc(NC(=N)N)cc2)cc1 [camostat mesylate] | – | – | having an inhibitory activity on PLA2
12 | N=C(N)Nc1ccc(C(=O)Oc2ccc3cc(C(=N)N)ccc3c2)cc1 [nafamostat mesilate] | – | – | having an inhibitory activity on PLA2
